# Results: publication PMC7866087, “Evaluation of Computationally Designed Peptides against TWEAK, a Cytokine of the Tumour Necrosis Factor Ligand Family” (International Journal of Molecular Sciences, 2021)
# Several values for one entry are separate records, joined by “and”; a condition that tells them apart may be missing. Identical values can stand only once.
# Tested on: TWEAK-Fn14 signalling pathway, BRV5 cells
# Experiment: Cell-based screening of individual peptides, gene expression microarray in TWEAK-stimulated BRV5 cells
# Set-up: species or system human
# Conditions: 6 h; for regulation of probe genes by individual peptides: BRV5 + TWEAK 25 ng/mL, peptides 450 µM; for BIRC2 mRNA expression (normalized to NARS2) / HSP90B1 mRNA expression (normalized to NARS2) / IL6 mRNA expression (normalized to NARS2) / JUN mRNA expression (normalized to NARS2) / MAP4K4 mRNA expression (normalized to NARS2) / MAPK14 mRNA expression (normalized to NARS2) / NFKB2 mRNA expression (normalized to NARS2) / TNFRSF12A mRNA expression (normalized to NARS2) / TRAF2 mRNA expression (normalized to NARS2) / BIRC2 expression Z-Score / HSP90B1 expression Z-Score / IL6 expression Z-Score / JUN expression Z-Score / MAP4K4 expression Z-Score / MAPK14 expression Z-Score / NFKB2 expression Z-Score / TNFRSF12A expression Z-Score / TRAF2 expression Z-Score: individual peptides, BRV5 + TWEAK; for BIRC2 mRNA expression (normalized to NARS2) / HSP90B1 mRNA expression (normalized to NARS2) / IL6 mRNA expression (normalized to NARS2) / JUN mRNA expression (normalized to NARS2) / MAP4K4 mRNA expression (normalized to NARS2) / MAPK14 mRNA expression (normalized to NARS2) / NFKB2 mRNA expression (normalized to NARS2) / TNFRSF12A mRNA expression (normalized to NARS2) / TRAF2 mRNA expression (normalized to NARS2): 450 µM; for BIRC2 expression Z-Score / HSP90B1 expression Z-Score / IL6 expression Z-Score / JUN expression Z-Score / MAP4K4 expression Z-Score / MAPK14 expression Z-Score / NFKB2 expression Z-Score / TNFRSF12A expression Z-Score / TRAF2 expression Z-Score: normalized to NARS2
# Method in brief: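 Serum-starved BRV5 cells were treated with individual peptides at 450 µM, given once or re-dosed hourly, every two hours or every three hours, with or without TWEAK at 25 ng/mL. RNA was harvested after 6 h, and expression of TWEAK-Fn14 downstream genes plus two housekeeping genes was quantified by Fluidigm EvaGreen qPCR as Ct and delta Ct values.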
Substance,regulation of probe genes by individual peptides,BIRC2 mRNA expression (normalized to NARS2) (mean of replicate columns),HSP90B1 mRNA expression (normalized to NARS2) (mean of replicate columns),IL6 mRNA expression (normalized to NARS2) (mean of replicate columns),JUN mRNA expression (normalized to NARS2) (mean of replicate columns),MAP4K4 mRNA expression (normalized to NARS2) (mean of replicate columns),MAPK14 mRNA expression (normalized to NARS2) (mean of replicate columns),NFKB2 mRNA expression (normalized to NARS2) (mean of replicate columns),TNFRSF12A mRNA expression (normalized to NARS2) (mean of replicate columns),TRAF2 mRNA expression (normalized to NARS2) (mean of replicate columns),BIRC2 mRNA expression (normalized to NARS2) (replicate column 1),HSP90B1 mRNA expression (normalized to NARS2) (replicate column 1),IL6 mRNA expression (normalized to NARS2) (replicate column 1),JUN mRNA expression (normalized to NARS2) (replicate column 1),MAP4K4 mRNA expression (normalized to NARS2) (replicate column 1),MAPK14 mRNA expression (normalized to NARS2) (replicate column 1),NFKB2 mRNA expression (normalized to NARS2) (replicate column 1),TNFRSF12A mRNA expression (normalized to NARS2) (replicate column 1),TRAF2 mRNA expression (normalized to NARS2) (replicate column 1),BIRC2 mRNA expression (normalized to NARS2) (replicate column 2),also measured
1: GNGTDDNSGTSY [Peptide 1],lack of effect against the probe genes,0.5966,1.937,0.002365,0.07082,0.1707,0.1634,0.03922,0.01975,0.011,0.538,1.874,0.002307,0.06535,0.1695,0.1671,0.04144,0.01871,0.009637,0.6552,HSP90B1 mRNA expression (normalized to NARS2) (replicate column 2): 2.001; IL6 mRNA expression (normalized to NARS2) (replicate column 2): 0.002424; JUN mRNA expression (normalized to NARS2) (replicate column 2): 0.07629; MAP4K4 mRNA expression (normalized to NARS2) (replicate column 2): 0.1719; MAPK14 mRNA expression (normalized to NARS2) (replicate column 2): 0.1597; NFKB2 mRNA expression (normalized to NARS2) (replicate column 2): 0.037; TNFRSF12A mRNA expression (normalized to NARS2) (replicate column 2): 0.0208; TRAF2 mRNA expression (normalized to NARS2) (replicate column 2): 0.01237; BIRC2 expression Z-Score (listed as P1): 0.2639; HSP90B1 expression Z-Score (listed as P1): -0.5389; IL6 expression Z-Score (listed as P1): 0.4124; JUN expression Z-Score (listed as P1): -0.3055; MAP4K4 expression Z-Score (listed as P1): -0.3569; MAPK14 expression Z-Score (listed as P1): -0.6461; NFKB2 expression Z-Score (listed as P1): -0.1191; TNFRSF12A expression Z-Score (listed as P1): -0.0875 and -0.08748; TRAF2 expression Z-Score (listed as P1): -0.4104
42: YNGHVKDD [Peptide 42],lack of effect against the probe genes,0.5389,2.753,0.00216,0.08082,0.2296,0.2228,0.05504,0.02325,0.01684,0.5109,2.683,0.001723,0.07685,0.2119,0.2124,0.04902,0.02357,0.01769,0.5668,HSP90B1 mRNA expression (normalized to NARS2) (replicate column 2): 2.8231; IL6 mRNA expression (normalized to NARS2) (replicate column 2): 0.002596; JUN mRNA expression (normalized to NARS2) (replicate column 2): 0.08479; MAP4K4 mRNA expression (normalized to NARS2) (replicate column 2): 0.2473; MAPK14 mRNA expression (normalized to NARS2) (replicate column 2): 0.2332; NFKB2 mRNA expression (normalized to NARS2) (replicate column 2): 0.06106; TNFRSF12A mRNA expression (normalized to NARS2) (replicate column 2): 0.02293; TRAF2 mRNA expression (normalized to NARS2) (replicate column 2): 0.01599; BIRC2 expression Z-Score (listed as P42): -0.1362; HSP90B1 expression Z-Score (listed as P42): 0.9131; IL6 expression Z-Score (listed as P42): 0.2346; JUN expression Z-Score (listed as P42): -0.1905; MAP4K4 expression Z-Score (listed as P42): 1.1128 and 1.113; MAPK14 expression Z-Score (listed as P42): 0.3913; NFKB2 expression Z-Score (listed as P42): 1.3869 and 1.387; TNFRSF12A expression Z-Score (listed as P42): 0.3098; TRAF2 expression Z-Score (listed as P42): -0.1276
SWYDHMAGDSSY [Peptide 35],lowest overall expression across all genes,0.4507,1.621,0.002118,0.05317,0.1168,0.1368,0.02465,0.01131,0.008162,0.4318,1.578,0.00212,0.0528,0.1079,0.1402,0.02663,0.01132,0.007774,0.4696,HSP90B1 mRNA expression (normalized to NARS2) (replicate column 2): 1.664; IL6 mRNA expression (normalized to NARS2) (replicate column 2): 0.002116; JUN mRNA expression (normalized to NARS2) (replicate column 2): 0.05355; MAP4K4 mRNA expression (normalized to NARS2) (replicate column 2): 0.1258; MAPK14 mRNA expression (normalized to NARS2) (replicate column 2): 0.1335; NFKB2 mRNA expression (normalized to NARS2) (replicate column 2): 0.02267; TNFRSF12A mRNA expression (normalized to NARS2) (replicate column 2): 0.01129; TRAF2 mRNA expression (normalized to NARS2) (replicate column 2): 0.008551; BIRC2 expression Z-Score (listed as P35): -0.7468; HSP90B1 expression Z-Score (listed as P35): -1.1014 and -1.101; IL6 expression Z-Score (listed as P35): 0.1984; JUN expression Z-Score (listed as P35): -0.5085; MAP4K4 expression Z-Score (listed as P35): -1.7018 and -1.702; MAPK14 expression Z-Score (listed as P35): -1.1107 and -1.111; NFKB2 expression Z-Score (listed as P35): -1.5063 and -1.506; TNFRSF12A expression Z-Score (listed as P35): -1.0476 and -1.048; TRAF2 expression Z-Score (listed as P35): -0.5479
